Tests used:
male BDF₁ mice = assay: Acute toxicity test, LD50 i.p. (Litchfield-Wilcoxon method); assay type: in vivo; settings: 6-7 week-old male BDF₁ mice, 18-22 g
[1] = test system: E.coli bacterial strain, AB2463 mutant strain (RecA); assay: Mutagenicity test: mortality of RecA-deficient E. coli strain; assay type: cell-based; settings: RecA strain AB2463, treated for 2 hours at 37 °C
Protocol: A summary of results in mutagenicity and acute toxicity tests is given hereinbelow. a) Mutagenicity tests: E.coli bacterial strain, AB2463 mutant strain (RecA) was used. […] RecA strain, AB2463 mutant strain, which is defective in the recombination and induction of SOS system, was treated for 2 hours at 37^ºC with compounds of the present invention. […]

SMILES | LD₅₀ (male BDF₁ mice) | LD₁₀ [1] | LD₅₀ [1] | LD₉₀ [1]
CC1C(N)CCN1C.[Cl][Pt][Cl] (stereo not drawn) [Example 1, Cis-dichloro(3-amino-1,2-dimethylpyrrolidine)platinum^(II)] | 95.02 mg/kg | >1.2 µM | 5.98 µM | 13.15 µM
CCC1C(N)CCN1C.[Cl][Pt][Cl] (stereo not drawn) [Example 3, Cis-dichloro(3-amino-2-ethyl-1-methylpyrrolidine)platinum^(II)] | 82.72 mg/kg | 10.74 µM | 17.89 µM | 35.78 µM
N.N.O=C([O-])C1(C(=O)[O-])CCC1.[Pt+2] [Carboplatin, reference compound] | 117.5 mg/kg | 71.53 µM | 606.0 µM | 1599 µM
CCN1CCC(N)C1C.[Cl][Pt][Cl] (stereo not drawn) [Example 2, Cis-dichloro(3-amino-1-ethyl-2-methylpyrrolidine)platinum^(II)] | 60.95 mg/kg | 15.86 µM | 57.08 µM | 301.27 µM
N.N.[Cl][Pt][Cl] [Cisplatin, reference compound] | – | 5.72 µM | 17.0 µM | 56.0 µM
CCC1C(N)CCN1CC.[Cl][Pt][Cl] (stereo not drawn) [Example 4, Cis-dichloro(3-amino-1,2-diethylpyrrolidine)platinum^(II)] | 113.81 mg/kg | 18.97 µM | 35.57 µM | 72.33 µM
